In US20100267561A1, “HERBICIDAL PYRIDAZINONE DERIVATIVES” (priority 2007, published 2010):

What was measured:
Experiment in all cases: Test B pre-/postemergence plant response
Type in all cases: in vivo
[1] = test system: wild oat (Avena fatua)
Excerpt: (§1) Seeds of plant species selected from blackgrass (Alopecurus myosuroides), downy bromegrass (Bromus tectorum), green foxtail (Setaria viridis), Italian ryegrass (Lolium multiflorum), wheat (Triticum aestivum), wild oat (Avena fatua), catchweed bedstraw (Galium aparine), bermudagrass (Cynodon dactylon), surinam grass (Brachiaria decumbens), cocklebur (Xanthium strumarium), corn (Zea mays), large crabgrass (Digitaria sanguinalis), woolly cupgrass (Eriochloa villosa), giant foxtail (Setaria faberii), goosegrass (Eleusine indica), johnsongrass (Sorghum halepense), kochia (Kochia scoparia), lambsquarters (Chenopodium album), morningglory (Ipomoea coccinea), eastern black (E.B.) nightshade (Solanum ptycanthum), yellow nutsedge (Cyperus esculentus), pigweed (Amaranthus retroflexus), common ragweed (Ambrosia elation), Russian thistle (Salsola iberica), soybean (Glycine max), common (oilseed) sunflower (Helianthus annuus), and velvetleaf (Abutilon theophrasti) were planted and treated preemergence with test chemicals formulated in a non-phytotoxic solvent mixture which included a surfactant.
(§2) At the same time, plants selected from these crop and weed species and also winter barley (Hordeum vulgare), canarygrass (Phalaris minor), chickweed (Stellaria media) and windgrass (Apera spica-venti) were treated with postemergence applications of some of the test chemicals formulated in the same manner. Plants ranged in height from 2 to 18 cm (1- to 4-leaf stage) for postemergence treatments.
(§3) Plant species in the flooded paddy test consisted of rice (Oryza sativa), umbrella sedge (Cyperus difformis), ducksalad (Heteranthera limosa) and barnyardgrass (Echinochloa crus-galli) grown to the 2-leaf stage for testing. At time of treatment, test pots were flooded to 3 cm above the soil surface, treated by application of test compounds directly to the paddy water, and then maintained at that water depth for the duration of the test. Treated plants and controls were maintained in a greenhouse for 13 to 15 days, after which time all species were compared to controls and visually evaluated. Plant response ratings, summarized in Table B, are based on a scale of 0 to 100 where 0 is no effect and 100 is complete control. A dash (-) response means no test result.

[2] = test system: yellow nutsedge (Cyperus esculentus)
Excerpt: as §1, §2, §3

[3] = test system: common (oilseed) sunflower (Helianthus annuus); conditions: Preemergence
Excerpt: as §1, §2, §3

[4] = test system: lambsquarters (Chenopodium album)
Excerpt: as §1, §2, §3

[5] = test system: pigweed (Amaranthus retroflexus)
Excerpt: as §1, §2, §3

[6] = test system: downy bromegrass (Bromus tectorum)
Excerpt: as §1, §2, §3

[7] = test system: woolly cupgrass (Eriochloa villosa)
Excerpt: as §1, §2, §3

[8] = test system: common ragweed (Ambrosia elation)
Excerpt: as §1, §2, §3

[9] = test system: velvetleaf (Abutilon theophrasti)
Excerpt: as §1, §2, §3

[10] = test system: corn (Zea mays)
Excerpt: as §1, §2, §3

[11] = test system: catchweed bedstraw (Galium aparine); conditions: Preemergence
Excerpt: as §1, §2, §3

[12] = test system: giant foxtail (Setaria faberii)
Excerpt: as §1, §2, §3

[13] = test system: blackgrass (Alopecurus myosuroides)
Excerpt: as §1, §2, §3

[14] = Preemergence, 16 g ai/ha, scale 0 to 100 (0 no effect, 100 complete control)
[15] = Preemergence, 31 g ai/ha, scale 0 to 100 (0 no effect, 100 complete control)
[16] = Preemergence, 62 g ai/ha, scale 0 to 100
[17] = Preemergence, 8 g ai/ha, scale 0 to 100
[18] = 16 g ai/ha, scale 0 to 100 (0 no effect, 100 complete control)
[19] = 31 g ai/ha, scale 0 to 100 (0 no effect, 100 complete control)
[20] = Preemergence, 31 g ai/ha, 0 to 100 scale, 0 no effect, 100 complete control
[21] = Preemergence, 62 g ai/ha, 0 to 100 scale, 0 no effect, 100 complete control
[22] = 8 g ai/ha, postemergence, 0-100 scale
[23] = 16 g ai/ha, postemergence, 0-100 scale
[24] = Postemergence, 31 g ai/ha, scale 0 to 100
[25] = Postemergence, 62 g ai/ha, scale 0 to 100, 0 no effect, 100 complete control
[26] = Preemergence, 8 g ai/ha, scale 0 to 100 (0 no effect, 100 complete control)
[27] = Preemergence, 16 g ai/ha, scale 0 to 100
[28] = 62 g ai/ha, 0 to 100 scale, 0 no effect, 100 complete control

Cc1cc(-c2ccc(Cl)cc2)nn1-c1c(OS(=O)(=O)c2cccc3ccccc23)cnn(C)c1=O [Compound 47]
70: Plant response rating, Oat, Wild [1, 16] | Plant response rating, Blackgrass [13, 14] | Blackgrass plant response rating [13, 17]
20: Plant response rating, Corn [10, 14]
65: Plant response rating, Lambsquarters [4, 16]
0: Plant response rating, Oat, Wild [1, 14] | Plant response rating, Oat, Wild [1, 15] | Oat, Wild plant response rating [1, 17] | Plant response rating, Nutsedge, Yellow [2, 14] | Plant response rating, Nutsedge, Yellow [2, 15] | Plant response rating, Nutsedge, Yellow [2, 16] | Nutsedge, Yellow plant response rating [2, 17] | Plant response rating, Sunflower [3, 18] | Plant response rating, Sunflower [3, 19] | Plant response rating, Sunflower ([3]; 62 g ai/ha, scale 0 to 100) | Sunflower plant response rating ([3]; 8 g ai/ha, scale 0 to 100) | Plant response rating, Lambsquarters [4, 20] | Lambsquarters plant response rating [4, 17] | Plant response rating, Pigweed [5, 15] | Plant response rating, Pigweed [5, 16] | Pigweed plant response rating [5, 17] | Plant response rating, Bromegrass, Downy [6, 14] | Plant response rating, Bromegrass, Downy [6, 20] | Bromegrass, Downy plant response rating [6, 17] | Plant response rating, Ragweed [8, 14] | Plant response rating, Ragweed [8, 15] | Plant response rating, Ragweed [8, 16] | Ragweed plant response rating [8, 17] | Plant response rating, Velvetleaf [9, 14] | Plant response rating, Velvetleaf [9, 15] | Plant response rating, Velvetleaf [9, 21] | Velvetleaf plant response rating [9, 17] | Corn plant response rating [10, 17] | Plant response rating, Galium [11, 18] | Plant response rating, Galium ([11]; 31 g ai/ha, 0 to 100 scale, 0 no effect, 100 complete control) | Galium plant response rating ([11]; 8 g ai/ha, scale 0 to 100) | Foxtail, Giant plant response rating [12, 17]
85: Plant response rating, Corn [10, 20]
95: Plant response rating, Corn [10, 16]
100: Plant response rating, Cupgrass, Woolly [7, 14] | Plant response rating, Cupgrass, Woolly [7, 20] | Plant response rating, Cupgrass, Woolly [7, 16] | Plant response rating, Foxtail, Giant [12, 20] | Plant response rating, Foxtail, Giant [12, 16] | Plant response rating, Blackgrass [13, 20] | Plant response rating, Blackgrass [13, 16]
90: Plant response rating, Bromegrass, Downy [6, 16]
98: Cupgrass, Woolly plant response rating [7, 17] | Plant response rating, Foxtail, Giant [12, 14]

COc1nn(C)c(=O)c(-n2nc(-c3ccc(Br)cc3)cc2C)c1O [Compound 82]
75: Plant response rating, Velvetleaf [9, 21]
50: Bromegrass, Downy plant response rating [6, 27] | Plant response rating, Ragweed [8, 15] | Plant response rating, Galium [11, 19] | Plant response rating, Galium [11, 28]
55: Plant response rating, Velvetleaf [9, 25]
30: Bromegrass, Downy plant response rating [6, 26]
0: Oat, Wild plant response rating [1, 26] | Nutsedge, Yellow plant response rating [2, 22] | Nutsedge, Yellow plant response rating [2, 23] | Plant response rating, Nutsedge, Yellow [2, 24] | Plant response rating, Nutsedge, Yellow [2, 25] | Nutsedge, Yellow plant response rating [2, 26] | Plant response rating, Nutsedge, Yellow [2, 15] | Nutsedge, Yellow plant response rating [2, 27] | Sunflower plant response rating ([3]; 8 g ai/ha, scale 0 to 100 (0 no effect, 100 complete control)) | Lambsquarters plant response rating [4, 22] | Lambsquarters plant response rating [4, 23] | Plant response rating, Lambsquarters [4, 24] | Plant response rating, Lambsquarters [4, 25] | Lambsquarters plant response rating [4, 26] | Lambsquarters plant response rating [4, 27] | Pigweed plant response rating [5, 22] | Pigweed plant response rating [5, 23] | Plant response rating, Pigweed [5, 24] | Plant response rating, Pigweed [5, 25] | Pigweed plant response rating [5, 26] | Plant response rating, Pigweed [5, 15] | Plant response rating, Pigweed [5, 21] | Ragweed plant response rating [8, 26] | Velvetleaf plant response rating [9, 22] | Velvetleaf plant response rating [9, 23] | Plant response rating, Velvetleaf [9, 24] | Velvetleaf plant response rating [9, 26] | Velvetleaf plant response rating [9, 27]
85: Plant response rating, Sunflower [3, 28] | Bromegrass, Downy plant response rating [6, 22] | Cupgrass, Woolly plant response rating [7, 22] | Plant response rating, Ragweed [8, 25]
40: Ragweed plant response rating [8, 23] | Corn plant response rating [10, 22]
20: Ragweed plant response rating [8, 22] | Ragweed plant response rating [8, 27]
98: Plant response rating, Bromegrass, Downy [6, 15] | Plant response rating, Cupgrass, Woolly [7, 15] | Plant response rating, Corn [10, 15] | Plant response rating, Corn [10, 21] | Foxtail, Giant plant response rating [12, 26] | Blackgrass plant response rating [13, 22] | Blackgrass plant response rating [13, 23] | Blackgrass plant response rating [13, 27]
65: Plant response rating, Ragweed [8, 24]
60: Oat, Wild plant response rating [1, 27] | Sunflower plant response rating ([3]; 16 g ai/ha, scale 0 to 100)
80: Plant response rating, Oat, Wild [1, 15] | Plant response rating, Oat, Wild [1, 21] | Cupgrass, Woolly plant response rating [7, 27] | Plant response rating, Ragweed [8, 21] | Blackgrass plant response rating [13, 26]
95: Oat, Wild plant response rating [1, 22] | Oat, Wild plant response rating [1, 23] | Plant response rating, Oat, Wild [1, 24] | Bromegrass, Downy plant response rating [6, 23] | Plant response rating, Cupgrass, Woolly [7, 24] | Corn plant response rating [10, 26] | Corn plant response rating [10, 27] | Foxtail, Giant plant response rating [12, 22]
70: Plant response rating, Sunflower [3, 19]
100: Plant response rating, Oat, Wild [1, 25] | Plant response rating, Lambsquarters [4, 15] | Plant response rating, Lambsquarters [4, 21] | Plant response rating, Bromegrass, Downy [6, 24] | Plant response rating, Bromegrass, Downy [6, 25] | Plant response rating, Bromegrass, Downy [6, 21] | Plant response rating, Cupgrass, Woolly [7, 25] | Plant response rating, Cupgrass, Woolly [7, 21] | Corn plant response rating [10, 23] | Plant response rating, Corn [10, 24] | Plant response rating, Corn [10, 25] | Foxtail, Giant plant response rating [12, 23] | Plant response rating, Foxtail, Giant [12, 24] | Plant response rating, Foxtail, Giant [12, 25] | Plant response rating, Foxtail, Giant [12, 15] | Plant response rating, Foxtail, Giant [12, 21] | Foxtail, Giant plant response rating [12, 27] | Plant response rating, Blackgrass [13, 24] | Plant response rating, Blackgrass [13, 25] | Plant response rating, Blackgrass [13, 15] | Plant response rating, Blackgrass [13, 21]
45: Plant response rating, Nutsedge, Yellow [2, 21] | Cupgrass, Woolly plant response rating [7, 26] | Plant response rating, Velvetleaf [9, 15]
90: Cupgrass, Woolly plant response rating [7, 23]
